Experimental data reported in US20250221966A1, “RXFP1 AGONISTS” (BRISTOL-MYERS SQUIBB COMPANY, priority 2021, published 2025).

Target: T1, human RXFP1 (Homo sapiens, UniProt Q9HBX9)
T1 construct: expressed in transfected cells
T1 sequence (Q9HBX9 1-757): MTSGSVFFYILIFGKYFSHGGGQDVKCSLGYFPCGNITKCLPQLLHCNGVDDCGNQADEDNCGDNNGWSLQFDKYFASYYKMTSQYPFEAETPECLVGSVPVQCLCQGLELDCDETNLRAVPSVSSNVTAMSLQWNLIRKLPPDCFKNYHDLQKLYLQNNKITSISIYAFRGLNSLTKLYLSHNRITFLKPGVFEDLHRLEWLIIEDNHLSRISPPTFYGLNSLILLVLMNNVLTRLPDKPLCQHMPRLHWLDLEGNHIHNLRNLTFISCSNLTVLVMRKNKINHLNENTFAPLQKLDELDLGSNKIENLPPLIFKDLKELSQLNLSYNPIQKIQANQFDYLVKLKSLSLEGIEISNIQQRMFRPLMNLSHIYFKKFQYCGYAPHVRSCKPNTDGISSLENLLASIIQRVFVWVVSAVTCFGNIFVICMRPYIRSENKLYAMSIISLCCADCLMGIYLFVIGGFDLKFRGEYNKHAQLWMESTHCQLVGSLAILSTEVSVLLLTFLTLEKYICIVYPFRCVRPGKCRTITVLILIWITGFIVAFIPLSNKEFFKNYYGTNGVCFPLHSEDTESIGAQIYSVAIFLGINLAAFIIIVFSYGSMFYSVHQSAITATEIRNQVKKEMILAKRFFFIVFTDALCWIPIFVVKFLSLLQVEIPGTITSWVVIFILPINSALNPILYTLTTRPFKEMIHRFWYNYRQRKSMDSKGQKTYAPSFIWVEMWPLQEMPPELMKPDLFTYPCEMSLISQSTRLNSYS
Assay: RXFP1 cAMP assay (hRXFP1 HEK293 cAMP assay, HTRF)
Type: cell-based
Details: HEK293 cells stably expressing human RXFP1, 30 min at room temperature, read-out: cAMP hRXFP1 HEK293 Assay EC50
Procedure, shortened: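 hRXFP1-HEK293 stable line; HBSS + Ca/Mg, 20 mM HEPES, 0.05% BSA, 0.5 mM IBMX; cpd 0.010 nM–50 μM, 2% DMSO; 30 min RT; lysis, HTRF cAMP detection; 4-PL fit.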

Molecule	EC50 [nM]
COc1ccc(C2=NOC3CN(CCO)CC23)cc1C(=O)N[C@H]1[C@@H](C(=O)Nc2ccc(F)c(C(F)(F)F)c2)[C@H]2CC[C@@H]1/C2=C\C1CC1 (single isomer, unassigned) [compound 455]	2
CCO/N=C1\C2CCC1[C@H](C(=O)Nc1ccc(F)c(C(F)(F)F)c1)[C@@H]2NC(=O)c1cc(-c2cc(C(=O)O)ccc2F)ccc1OC (some centres unmarked) [Example 130]	440
COc1cc(F)c(F)cc1C(=O)N[C@@H]1C2CCC(/C2=C/c2cccc(C(F)(F)F)c2)[C@@H]1C(=O)Nc1ccc(F)c(C(F)(F)F)c1 (some centres unmarked) [compound 25]	200
CCCC#C/C=C1\C2CCC1[C@H](C(=O)Nc1ccc(F)c(C(F)(F)F)c1)[C@@H]2NC(=O)c1cc(F)c(F)cc1OC (some centres unmarked) [compound 135]	370
COC(=O)C1CC2ON=C(c3ccc(OC)c(C(=O)N[C@H]4[C@@H](C(=O)Nc5ccc(F)c(C(F)(F)F)c5)[C@H]5CC[C@@H]4/C5=C\C4CC4)c3)C2C1 (some centres unmarked) [compound 512]	15.7
CCOC(=O)c1coc(-c2ccc(OC)c(C(=O)N[C@@H]3C4CCC(C4=C(C)C)[C@@H]3C(=O)Nc3ccc(F)c(C(F)(F)F)c3)c2)n1 (some centres unmarked) [Example 110]	800
COc1ccc(C2=NOC3CCCCCCC23)cc1C(=O)N[C@H]1[C@@H](C(=O)Nc2ccc(F)c(C(F)(F)F)c2)[C@H]2CC[C@@H]1/C2=C\C1CC1 (some centres unmarked) [compound 537]	26
COc1ccc(-c2cc(C(=O)O)ccc2F)cc1C(=O)N[C@@H]1C2CCC(/C2=C/C(=O)N2CC(F)(F)C2)[C@@H]1C(=O)Nc1ccc(F)c(C(F)(F)F)c1 (some centres unmarked) [compound 324]	2240
COc1ccc(C2=NOC3CC(CO)CC23)cc1C(=O)N[C@H]1[C@@H](C(=O)Nc2ccc(F)c(C(F)(F)F)c2)[C@H]2CC[C@@H]1/C2=C\C1CCCC1 (some centres unmarked) [compound 457]	2.1
COc1ccc(-c2cc(C(OC(=O)NC34CC(C3)C4)C(F)F)ccc2F)cc1C(=O)N[C@@H]1C2CCC(/C2=C/C2CC2)[C@@H]1C(=O)Nc1ccc(F)c(C(F)(F)F)c1 (some centres unmarked) [compound 232]	1

The next lines start with the values.

EC50 [nM]	Molecule
4.7	COc1c(Cl)cc(C2=NOC3CC(CO)CC23)cc1C(=O)N[C@H]1[C@@H](C(=O)Nc2ccc(F)c(C(F)(F)F)c2)[C@H]2CC[C@@H]1/C2=C\C1CC1 (some centres unmarked) [compound 798]
3.4	COc1ccc(C2=NO[C@H]3COC[C@@H]23)cc1C(=O)N[C@H]1[C@@H](C(=O)Nc2ccc(F)c(C(F)(F)F)c2)[C@H]2CC[C@@H]1/C2=C\CCC(F)(F)F [compound 830]
1050	COc1ccc([C@@]2(O)CO[C@@H]3[C@@H](O)CO[C@@H]32)cc1C(=O)N[C@H]1[C@@H](C(=O)Nc2ccc(F)c(C(F)(F)F)c2)[C@H]2CC[C@@H]1/C2=C\C1CC1 [compound 700]
82	COc1ccc(C2CC3COCC32)cc1C(=O)N[C@H]1[C@@H](C(=O)Nc2ccc(F)c(C(F)(F)F)c2)[C@H]2CC[C@@H]1/C2=C\C1CC1 (single isomer, unassigned) [compound 729]
1960	COc1ccc(C2CCCN2C(=O)OC(C)(C)C)cc1C(=O)N[C@@H]1C2CCC(/C2=C/C2CC2)[C@@H]1C(=O)Nc1ccc(F)c(C(F)(F)F)c1 (single isomer, unassigned) [compound 715]
4.1	COc1c(C)cc(C2=NOC3CC(CO)CC23)cc1C(=O)N[C@H]1[C@@H](C(=O)Nc2ccc(F)c(C(F)(F)F)c2)[C@H]2CC[C@@H]1/C2=C\C1CC1 (some centres unmarked) [compound 797]
67.8	COc1ccc(C2=NO[C@H]3[C@@H]2CC[C@@H]3O)cc1C(=O)N[C@H]1[C@@H](C(=O)Nc2ccc(F)c(C(F)(F)F)c2)[C@H]2CC[C@@H]1/C2=C\C1CC1 (single isomer, unassigned) [compound 574]
7	COc1ccc(-c2cc(C3=NOC4CC(CO)CC34)ccc2F)cc1C(=O)N[C@H]1[C@@H](C(=O)Nc2ccc(F)c(C(F)(F)F)c2)[C@H]2CC[C@@H]1/C2=C\C1CC1 (some centres unmarked) [compound 953]
416	COc1ccc(C2=NOC3COCC23)cc1C(=O)N[C@H]1[C@@H](C(=O)NC(C)(C)c2ccccc2Cl)[C@H]2CC[C@@H]1/C2=C\C1CC1 (some centres unmarked) [compound 669]

Test system: not given
Assay: not given
Details: intravenous (IV) formulation; cited from earlier work

Molecule	first-phase pharmacokinetic half-life [min]
Serelaxin	5.4
